Source: ChEMBL document CHEMBL1124032, “Quantitative structure-activity relationships for the inhibition of Escherichia coli dihydrofolate reductase by 5-(substituted benzyl)-2,4-diaminopyrimidines” (1988)

How the values were obtained:
[1] = target: T1, Dihydrofolate reductase (Escherichia coli) (UniProt P0ABQ4)
T1 sequence (whole entry): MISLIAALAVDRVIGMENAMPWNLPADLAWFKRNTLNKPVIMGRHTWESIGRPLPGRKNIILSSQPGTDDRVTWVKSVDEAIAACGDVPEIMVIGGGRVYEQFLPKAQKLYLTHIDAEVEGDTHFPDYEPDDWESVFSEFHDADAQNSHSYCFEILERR
Description: Apparent inhibitory (log 1/Ki) activity against Escherichia coli dihydrofolate reductase

Escherichia coli [2] = test: The logarithm of the inverse of the concentration (log 1/C) for the inhibition of Escherichia coli MB 1428 growth by 80%; format: functional
Escherichia coli [3] = test: The logarithm of the inverse of the concentration (log 1/C) for the inhibition of Escherichia coli 1515 (Escherichia coli) growth by 80%; format: functional

Log 1/Ki app [1]	Structure (SMILES)	Log 1/C (Escherichia coli [2])	Log 1/C (Escherichia coli [3])
6.92	CS(=O)(=O)Oc1cccc(Cc2cnc(N)nc2N)c1	–	–
7.69	COc1ccc(Cc2cnc(N)nc2N)cc1C(F)(F)F	–	–
8.8	CCCOc1cc(Cc2cnc(N)nc2N)cc(OCCC)c1	–	–
9.05	COc1cc(Cc2cnc(N)nc2N)ccc1O	3.51	6.45
8.96	CCCCOc1cc(Cc2cnc(N)nc2N)cc(Br)c1OC	6.24	5.02
9.25	COCCOc1ccc(Cc2cnc(N)nc2N)cc1OC	4.3	5.82
10	COc1ccc(Cc2cnc(N)nc2N)cc1OCc1ccccc1	5.02	4.96
6.57	Nc1ncc(Cc2ccc(OC(F)(F)F)cc2)c(N)n1	–	–
6.97	CC(=O)Nc1ccc(Cc2cnc(N)nc2N)cc1[N+](=O)[O-]	–	–
8.15	CS(=O)(=O)Oc1ccc(Cc2cnc(N)nc2N)cc1	–	–
8.96	COc1ccc(Cc2cnc(N)nc2N)cc1OS(C)(=O)=O	4.13	6.42
8.96	CCCOc1cc(Cc2cnc(N)nc2N)cc(Br)c1OC	6.07	4.91

Second part, the compound before the results:

Structure (SMILES)	Log 1/Ki app [1]	Log 1/C (Escherichia coli [2])	Log 1/C (Escherichia coli [3])
COCCOc1cc(Cc2cnc(N)nc2N)ccc1OC	8.74	–	–
COc1cc(Cc2cnc(N)nc2N)ccc1OCc1ccccc1	9.43	5.02	4.96
Nc1ncc(Cc2ccc([N+](=O)[O-])cc2)c(N)n1	6.2	–	–
CCCCOc1ccc(Cc2cnc(N)nc2N)cc1OC	9.01	4.98	5.93
CCCOc1cc(Cc2cnc(N)nc2N)cc(OCC)c1	8.49	–	–
CCOc1cc(Cc2cnc(N)nc2N)cc(OCC)c1	9.11	4.77	6.54
Nc1ncc(Cc2cc(OCc3ccccc3)cc(OCc3ccccc3)c2)c(N)n1	8.77	–	–
Nc1ncc(Cc2ccc(OCc3ccccc3)cc2)c(N)n1	8.7	–	–
Cc1cc(C)cc(Cc2cnc(N)nc2N)c1	8.05	–	–
